Measured values published in patent publication US20150297694A1, “CANCER DIAGNOSTIC AND THERAPEUTIC METHOD TARGETING MOLECULES EXPRESSED IN CANCER STEM CELLS” (NIIGATA UNIVERSITY, priority 2012, published 2015).

System: PBMC of healthy volunteers (HLA-A*0201 or HLA-A*2601)
Test: IFN-γ production (ELISA) by DDX3X-derived peptide stimulation of peptide-induced CTL from PBMC
Format: cell-based, human
Details: peptide 20 μg/mL, 24 hours
Protocol: PBMC (1.5×10^7 cells) were inoculated in a 24-well plate in 1.5×10^6 cells/well (Day 0). Then, three types of DDX3X-derived peptides (final concentration 20 μg/mL each), and IL-7 (final concentration 10 ng/mL) were added to each well, and the cells were cultured at 37° C. in 5% CO2.
The cells were re-stimulated after 1 week (Day 7). For re-stimulation, the PBMC cryopreserved as antigen-presenting cells in Day 0 were thawed, and the three types of DDX3X-derived peptides (final concentration 20 μg/mL each) were added and conjugated at 37° C. for 2 hours after adjusting the cells to 3×10^6 cells/mL or less. This was followed by addition of a mitomycin C [Kyowa Hakko Kirin] solution to make the final concentration 50 μg/mL, and the cells were treated at 37° C. for 45 min. The cells were washed twice with AIM-V, and resuspended in medium to obtain an antigen-presenting cell suspension. After harvesting cells cultured for 1 week, the cells were inoculated in a 24-well plate in 1.2×10^6 cells/well, and the antigen-presenting cell suspension was inoculated with the same number of cells. Finally, IL-7 was added at 10 ng/ml, and the cells were cultured at 37° C. in 5% CO2. After 2 days (Day 9), half of the culture medium was gently removed from each well, and replaced with 40 U/mL of IL-2-containing medium for further culture. The half-volume replacement of the culture medium with 20 U/mL of IL-2-containing medium was repeated in the same fashion every other day (Day 11, Day 13). Re-stimulation was repeated in Day 14 and Day 21 using the same procedure. […]
Twenty-four hours after peptide stimulation, the culture supernatant was gently collected from each well. IFN-γ concentration in each culture supernatant was detected by ELISA, by using an ELISA reagent set (BD OptEIA ELISA set (human IFN-7)(trade name)) according to the manufacturer's protocol after modification. […] Measurements were made with a visible wavelength absorbance microplate reader (VERSAmax(trade name); Molecular Device).

Sequence | samples showing IFN-γ production (Day 28, samples with A*2601) | samples showing IFN-γ production (Day 21, samples with A*2601) | samples showing IFN-γ production (Day 28, samples with A*0201)
FVETKKGADSLEDFLYHEGY (listed as Homo sapiens) [DDX3X-20 mer] | one of the five | – | –
LEDFLYHEGY (listed as Homo sapiens) [DDX3X-10 mer] | – | two of the five | one of the six
